For one test, the target named is SUV39H2 (Homo sapiens (Human), UniProt Q9H5I1). Nature of the test: biochemical. The test is classed as biochemical. To be noted: 3H-SAM 100 nM, H3 Histone Peptide 350 nM, room temperature 3 hours. A digest of the protocol:
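Human SUV39H2, at a lot-specific concentration set by specific activity, was incubated with test compounds for 3 h at room temperature, then stopped with streptavidin SPA beads (50 μg/well final).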

The subject of a further test is A549. In words: Cell-based assay, anti-proliferative activity (Cell Counting Kit-8, 72 hours). To be noted: Homo sapiens, read-out: A549 IC50. A digest of the protocol: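 IC50 values come from growth read-outs taken after the cells' exposure to each candidate inhibitor. Cells had been plated in 96-well microtiter plates beforehand.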
For orientation: Tetrazolium dyes change colour on reduction, which living cells bring about.

Setting [1] is: A549 cells, 72 hours exposure, Cell Counting Kit-8.

The structures appear in SMILES notation. Where a name gives a salt, the structure may show the parent alone. Read-outs that look alike come from different tables or passages of the source.

For orientation: IC50 means the point on the concentration scale where inhibition reaches its midpoint.

SUV39H2, sequence (Q9H5I1 whole entry): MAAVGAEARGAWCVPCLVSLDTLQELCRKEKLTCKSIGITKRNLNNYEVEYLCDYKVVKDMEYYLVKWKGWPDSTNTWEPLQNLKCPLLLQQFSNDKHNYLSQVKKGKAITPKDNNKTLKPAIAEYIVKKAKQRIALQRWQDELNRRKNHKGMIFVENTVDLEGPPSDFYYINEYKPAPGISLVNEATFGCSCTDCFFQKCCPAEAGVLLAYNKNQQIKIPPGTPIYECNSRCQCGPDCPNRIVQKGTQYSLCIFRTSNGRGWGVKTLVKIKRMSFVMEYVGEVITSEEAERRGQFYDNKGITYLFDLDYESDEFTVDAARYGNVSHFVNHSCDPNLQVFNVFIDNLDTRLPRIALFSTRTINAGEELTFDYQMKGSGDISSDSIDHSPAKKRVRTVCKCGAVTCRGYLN

As to `COc1cc(OC)c(-c2cn3ccc(N4CCN(c5nccc(N6CCN(C(=O)Cc7ccccc7)CC6)n5)CC4)cc3n2)cc1Cl` [Example 382, 1-(4-(2-(4-(2-(5-chloro-2,4-dimethoxyphenyl)imidazo[1,2-a]pyridin-7-yl)piperazin-1-yl)pyrimidin-4-yl)piperazin-1-yl)-2-phenylethanone dihydrochloride], the IC50 worked out at 31.7 nM against SUV39H2 and 680 nM in the test on A549 (A549, 72 h).

Consider `COc1cc(OC)c(-c2cn3ccc(N[C@H]4CC[C@@H](NCc5ccccc5)CC4)cc3n2)cc1Cl` [Example 325, cis-N^1-benzyl-N^4-(2-(5-chloro-2,4-dimethoxyphenyl)imidazo[1,2-a]pyridin-7-yl)cyclohexane-1,4-diamine], for which the IC50 against SUV39H2 was 23.4 nM; in the test on A549 (setting [1]) it was 800 nM.

`COc1cc(OC)c(-c2cn3ccc(N4CCN(c5nc(N)nc(Cl)n5)CC4)cc3n2)cc1Cl` [Example 361, 4-chloro-6-(4-(2-(5-chloro-2,4-dimethoxyphenyl)imidazo[1,2-a]pyridin-7-yl)piperazin-1-yl)-1,3,5-triazin-2-amine]: the values for the IC50 against SUV39H2 and in the test with A549 (setting [1]) were 43.3 nM and 870 nM, respectively.

For `COc1cc(OC)c(-c2cn3ccc(N4CCN(c5ccncc5F)CC4)cc3n2)cc1Cl` [Example 322, 2-(5-chloro-2,4-dimethoxyphenyl)-7-(4-(3-fluoropyridin-4-yl)piperazin-1-yl)imidazo[1,2-a]pyridine], the IC50 is 57.5 nM against SUV39H2 and 560 nM with A549 (setting [1]).

On to `COc1cc(OC)c(-c2cn3ccc(N4CCN(c5nccc(N6CCN(C)CC6)n5)CC4)cc3n2)cc1Cl` [Example 370, 2-(5-chloro-2,4-dimethoxyphenyl)-7-(4-(4-(4-methylpiperazin-1-yl)pyrimidin-2-yl)piperazin-1-yl)imidazo[1,2-a]pyridine], for which the IC50 on SUV39H2 amounted to 12 nM; in the test on A549 (A549, 72 h) it was 730 nM.

Take `COc1cc(OC)c(-c2cn3ccc(N4CCN(C(C)=O)CC4)cc3n2)cc1Cl` [Example 307, 1-(4-(2-(5-chloro-2,4-dimethoxyphenyl)imidazo[1,2-a]pyridin-7-yl)piperazin-1-yl)ethanone]: the IC50 worked out at 2 nM on SUV39H2 and 2200 nM in the test with A549 (setting [1]).

Regarding `COc1cc(OC)c(-c2cn3ccc(N4CCN(c5cncnc5)CC4)cc3n2)cc1Cl` [Example 317, 2-(5-chloro-2,4-dimethoxyphenyl)-7-(4-(pyrimidin-5-yl)piperazin-1-yl)imidazo[1,2-a]pyridine], the figures for the IC50 at SUV39H2 and in the test on A549 (setting [1]) were 11.6 nM and 650 nM, respectively.

As for `COc1cc(OC)c(-c2cn3ccc(N[C@H]4CC[C@H](Nc5ncccn5)CC4)cc3n2)cc1Cl` [Example 318, (1r,4r)-N^1-(2-(5-chloro-2,4-dimethoxyphenyl)imidazo[1,2-a]pyridin-7-yl)-N^4-(pyrimidin-2-yl)cyclohexane-1,4-diamine hydrochloride], the values for the IC50 on SUV39H2 and with A549 (setting [1]) were 9.73 nM and 180 nM, respectively.

Consider `COc1cc(OC)c(-c2cn3ccc(N4CCN(C(C)=O)CC4C)cc3n2)cc1Cl` (stereo not shown) [Example 308, 1-(4-(2-(5-chloro-2,4-dimethoxyphenyl)imidazo[1,2-a]pyridin-7-yl)-3-methylpiperazin-1-yl)ethanone], for which the IC50 was 3.5 nM against SUV39H2 and 8600 nM with A549 (setting [1]).

On to `CNC1CCCN(c2ncc(N3CCN(c4ccn5cc(-c6cc(Cl)c(OC)cc6OC)nc5c4)CC3)cn2)C1` (stereo not shown) [Example 428, 1-(5-(4-(2-(5-chloro-2,4-dimethoxyphenyl)imidazo[1,2-a]pyridin-7-yl)piperazin-1-yl)pyrimidin-2-yl)-N-methylpiperidin-3-amine], for which the values for the IC50 on SUV39H2 and in the test on A549 (setting [1]) were 14.3 nM and 770 nM, respectively.

As to `COc1cc(OC)c(-c2cn3ccc(N[C@H]4C[C@H]5CC[C@@H](C4)N5Cc4ccccc4)cc3n2)cc1Cl` [Example 433, N-((1R,3r,5S)-8-benzyl-8-azabicyclo[3.2.1]octan-3-yl)-2-(5-chloro-2,4-dimethoxyphenyl)imidazo[1,2-a]pyridin-7-amine], the IC50 at SUV39H2 was 57.6 nM; in the test with A549 (setting [1]), 820 nM.

`COc1cc(OC)c(-c2cn3ccc(N4CCN(c5cnc(N6CCC(N)CC6)nc5)CC4)cc3n2)cc1Cl` [Example 350, 1-(5-(4-(2-(5-chloro-2,4-dimethoxyphenyl)imidazo[1,2-a]pyridin-7-yl)piperazin-1-yl)pyrimidin-2-yl)piperidin-4-amine]: the IC50 is 7.35 nM against SUV39H2 and 680 nM in the test with A549 (setting [1]).

On to `COc1cc(OC)c(-c2cn3ccc(N4CCCN(c5cncnc5)CC4)cc3n2)cc1Cl` [Example 383, 2-(5-chloro-2,4-dimethoxyphenyl)-7-(4-(pyrimidin-5-yl)-1,4-diazepan-1-yl)imidazo[1,2-a]pyridine], for which the IC50 at SUV39H2 stood at 13.8 nM; with A549 (setting [1]), 880 nM.

`COc1cc(OC)c(-c2cn3ccc(N4CCN(c5nccc(N(C)C)n5)CC4)cc3n2)cc1Cl` [Example 356, 2-(4-(2-(5-chloro-2,4-dimethoxyphenyl)imidazo[1,2-a]pyridin-7-yl)piperazin-1-yl)-N,N-dimethylpyrimidin-4-amine]: the IC50 against SUV39H2 was 60.6 nM; with A549 (setting [1]) it was 380 nM.

With `COc1cc(OC)c(-c2cn3ccc(N4CCN(c5nccc(N6CCN(C(C)=O)CC6)n5)CC4)cc3n2)cc1Cl` [Example 373, 1-(4-(2-(4-(2-(5-chloro-2,4-dimethoxyphenyl)imidazo[1,2-a]pyridin-7-yl)piperazin-1-yl)pyrimidin-4-yl)piperazin-1-yl)ethanone 2,2,2-trifluoroacetate], the IC50 was found to be 13.6 nM against SUV39H2 and 640 nM with A549 (setting [1]).

For the compound `COc1cc(OC)c(-c2cn3ccc(N[C@H]4C[C@H]5CC[C@@H](C4)N5C(=O)OC(C)(C)C)cc3n2)cc1Cl` [Example 444, (1R,3r,5S)-tert-butyl 3-((2-(5-chloro-2,4-dimethoxyphenyl)imidazo[1,2-a]pyridin-7-yl)amino)-8-azabicyclo[3.2.1]octane-8-carboxylate], the IC50 is 78 nM against SUV39H2 and 780 nM in the test on A549 (setting [1]).

For `COc1cc(OC)c(-c2cn3ccc(N[C@H]4CC[C@H](CN5CCN(c6ncccn6)CC5)CC4)cc3n2)cc1Cl` [Example 316, 2-(5-chloro-2,4-dimethoxyphenyl)-N-((trans)-4-((4-(pyrimidin-2-yl)piperazin-1-yl)methyl)cyclohexyl)imidazo[1,2-a]pyridin-7-amine], the IC50 at SUV39H2 worked out at 77 nM; in the test on A549 (setting [1]) it was 700 nM.

On to `COc1cc(OC)c(-c2cn3ccc(N4CCN(c5cnc(N6CCCC6)nc5)CC4)cc3n2)cc1Cl` [Example 333, 2-(5-chloro-2,4-dimethoxyphenyl)-7-(4-(2-(pyrrolidin-1-yl)pyrimidin-5-yl)piperazin-1-yl)imidazo[1,2-a]pyridine], for which the concentration for half-maximal inhibition (IC50) amounted to 62 nM against SUV39H2 and 720 nM in the test with A549 (setting [1]).

On to `CNC1CCN(c2ncc(N3CCN(c4ccn5cc(-c6cc(Cl)c(OC)cc6OC)nc5c4)CC3)cn2)CC1` [Example 396, 1-(5-(4-(2-(5-chloro-2,4-dimethoxyphenyl)imidazo[1,2-a]pyridin-7-yl)piperazin-1-yl)pyrimidin-2-yl)-N-methylpiperidin-4-amine dihydrochloride], for which the IC50 against SUV39H2 is 14.6 nM; in the test with A549 (A549, 72 h), 780 nM.

As for `COc1cc(OC)c(-c2cn3ccc(N4CCN(c5ccnc(N6CCC(CO)C6)n5)CC4)cc3n2)cc1Cl` (stereo not shown) [Example 367, (1-(4-(4-(2-(5-chloro-2,4-dimethoxyphenyl)imidazo[1,2-a]pyridine-7-yl)piperazin-1-yl)pyrimidin-2-yl)pyrrolidin-3-yl)methanol], the IC50 at SUV39H2 stood at 26.2 nM; in the test with A549 (setting [1]), 980 nM.

On to `COc1cc(OC)c(-c2cn3ccc(N4CCN(c5ncnc(N(C)C)n5)CC4)cc3n2)cc1Cl` [Example 450, 4-(4-(2-(5-chloro-2,4-dimethoxyphenyl)imidazo[1,2-a]pyridin-7-yl)piperazin-1-yl)-N,N-dimethyl-1,3,5-triazin-2-amine], for which the IC50 at SUV39H2 came out at 33.6 nM; in the test on A549 (setting [1]), 730 nM.

`COc1cc(OC)c(-c2cn3ccc(N[C@H]4CC[C@@H](NCc5ccc(N(C)C)cc5)CC4)cc3n2)cc1Cl` [Example 418, cis-N^1-(2-(5-chloro-2,4-dimethoxyphenyl)imidazo[1,2-a]pyridin-7-yl)-N^4-(4-(dimethylamino)benzyl)cyclohexane-1,4-diamine bis(2,2,2-trifluoroacetate)]: the concentration for half-maximal inhibition (IC50) amounted to 41.3 nM against SUV39H2 and 610 nM with A549 (setting [1]).

As to `CNC1CCN(c2nccc(N3CCN(c4ccn5cc(-c6cc(Cl)c(OC)cc6OC)nc5c4)CC3)n2)C1` (stereo not shown) [Example 372, 1-(4-(4-(2-(5-chloro-2,4-dimethoxyphenyl)imidazo[1,2-a]pyridine-7-yl)piperazin-1-yl)pyrimidin-2-yl)-N-methylpyrrolidin-3-amine trihydrochloride], the IC50 against SUV39H2 turned out to be 18.3 nM; in the test with A549 (A549, 72 h), 700 nM.

For `COc1cc(OC)c(-c2cn3ccc(N4CCN(c5nc(N)nc(N6CCC(N(C)C)C6)n5)CC4)cc3n2)cc1Cl` (stereo not shown) [Example 436, 4-(4-(2-(5-chloro-2,4-dimethoxyphenyl)imidazo[1,2-a]pyridin-7-yl)piperazin-1-yl)-6-(3-(dimethylamino)pyrrolidin-1-yl)-1,3,5-triazin-2-amine], the IC50 against SUV39H2 was 11.7 nM; in the test with A549 (setting [1]) it was 650 nM.

For the compound `COc1cc(OC)c(-c2cn3ccc(N[C@H]4CC[C@H](NCc5ccc(N(C)C)cc5)CC4)cc3n2)cc1Cl` [Example 419, (1r,4r)-N^1-(2-(5-chloro-2,4-dimethoxyphenyl)imidazo[1,2-a]pyridin-7-yl)-N^4-(4-(dimethylamino)benzyl)cyclohexane-1,4-diamine], the concentration for half-maximal inhibition (IC50) against SUV39H2 stood at 82 nM; in the test on A549 (setting [1]), 490 nM.

`COc1cc(OC)c(-c2cn3ccc(N4C[C@H](NCc5ccncc5)[C@@H](O)C4)cc3n2)cc1Cl` (relative stereo) [Example 439, trans-1-(2-(5-chloro-2,4-dimethoxyphenyl)imidazo[1,2-a]pyridin-7-yl)-4-((pyridin-4-ylmethyl)amino)pyrrolidin-3-ol]: the results for the concentration for half-maximal inhibition (IC50) against SUV39H2 and in the test on A549 (setting [1]) were 6.76 nM and 10000 nM, respectively.

The values above are taken from patent publication US10508109B2 (priority 2015, dated 2019).
